Reference: ChEMBL document CHEMBL1201862, “PubChem BioAssay data set” (2004)
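Protocol summary: plate cells (96-well), add compound at 5 concentrations, incubate 48 h, interpolate endpoints linearly. The concentration for 50% growth inhibition is given as GI50.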 Calls of active or inactive are those of the source. Rule as the data show it: active = GI50 up to about 1.1 µM and inactive = higher.

Assays:
Assay in all cases: DTP human tumour cell line panel, 48 h
[1] = system: RPMI-8226
[2] = system: HCT-15
[3] = system: HL-60
[4] = system: SK-OV-3
[5] = system: UO-31
[6] = system: U-251
[7] = system: SK-MEL-2
[8] = system: OVCAR-5
[9] = system: A498
[10] = system: IGROV-1
[11] = system: SF-539
[12] = system: HCC 2998
[13] = system: SW-620
[14] = system: NCI-H23
[15] = system: HOP-62
[16] = system: K562
[17] = system: NCI-H226

Structure (SMILES) | GI50 [1] | GI50 [2] [µM] | GI50 [3] | GI50 [4] | GI50 [5] | GI50 [6] | GI50 [7] | GI50 [8] | GI50 [9] | GI50 [10] | GI50 [11] | GI50 [12] | GI50 [13] | GI50 [14] | GI50 [15] | GI50 [16] | GI50 [17]
c1ccc2c(c1)C1=NCCN1c1ccccc1-2 | 2.32 µM (inactive) | 3.1 | 2.42 µM (inactive) | 4.9 µM (inactive) | 2.77 µM (inactive) | 3.15 µM (inactive) | 3.19 µM (inactive) | 3.47 µM (inactive) | 3.18 µM (inactive) | 3.44 µM (inactive) | 2.78 µM (inactive) | 4.46 µM (inactive) | 2.37 µM (inactive) | 2.72 µM (inactive) | 3.25 µM (inactive) |  | 
COc1ccc(/C=C/COC(C)=O)cc1OC | > 100 µM (inactive) | > 100 |  | > 100 µM (inactive) | > 100 µM (inactive) | > 100 µM (inactive) | > 100 µM (inactive) | > 100 µM (inactive) |  | > 100 µM (inactive) | > 100 µM (inactive) | > 100 µM (inactive) | > 100 µM (inactive) | > 100 µM (inactive) |  | > 100 µM (inactive) | > 100 µM (inactive)
C[N+]1(C)C/C(=C/c2ccc(F)cc2)C(=O)/C(=C\c2ccc(F)cc2)C1 | 24.4 µM (inactive) | > 100 | 17.3 µM (inactive) | > 100 µM (inactive) | > 100 µM (inactive) | 16.4 µM (inactive) | 56.8 µM (inactive) | > 100 µM (inactive) | 31.1 µM (inactive) | 26.1 µM (inactive) | 38.2 µM (inactive) | > 100 µM (inactive) | 75.9 µM (inactive) | 32.7 µM (inactive) | > 100 µM (inactive) | 28.2 µM (inactive) | 
O=C1CCCC(O)=C1SC1=C(O)CCCC1=O | > 100 µM (inactive) | 47.2 | > 100 µM (inactive) | > 100 µM (inactive) | 98.2 µM (inactive) | > 100 µM (inactive) | > 100 µM (inactive) | > 100 µM (inactive) | 39.2 µM (inactive) | > 100 µM (inactive) | > 100 µM (inactive) | 70.1 µM (inactive) | > 100 µM (inactive) | > 100 µM (inactive) |  | 51.4 µM (inactive) | > 100 µM (inactive)
Cn1c(=O)c2nc3sc4ccccc4c(=N)n3c2n(C)c1=O |  |  | > 100 µM (inactive) | > 100 µM (inactive) | > 100 µM (inactive) | > 10 µM (inactive) | > 100 µM (inactive) | > 100 µM (inactive) | > 100 µM (inactive) | > 100 µM (inactive) | > 100 µM (inactive) | > 100 µM (inactive) | > 100 µM (inactive) | > 100 µM (inactive) | > 100 µM (inactive) | > 100 µM (inactive) | 25.1 µM (inactive)
N#CC(NNC(=O)c1ccccc1O)c1ccccc1O (stereo not given) | 4.03 µM (inactive) | 3.85 | 1.27 µM (inactive) | 9.53 µM (inactive) | 2.91 µM (inactive) | 4.18 µM (inactive) | 31.3 µM (inactive) | 27.1 µM (inactive) |  | 2.6 µM (inactive) | 4.06 µM (inactive) |  | 7.66 µM (inactive) | 2.06 µM (inactive) | 8.45 µM (inactive) | 5.43 µM (inactive) | 3.18 µM (inactive)
CC(C)(C)c1ccc2c(c1)S(=O)(=O)Nc1cccc(c1)NS(=O)(=O)c1cc(C(C)(C)C)ccc1OCCOCCO2 | 23.6 µM (inactive) | > 100 |  | > 100 µM (inactive) | > 100 µM (inactive) | > 100 µM (inactive) | > 100 µM (inactive) | > 100 µM (inactive) | > 100 µM (inactive) | > 100 µM (inactive) | > 100 µM (inactive) | > 100 µM (inactive) | > 100 µM (inactive) | > 100 µM (inactive) | > 100 µM (inactive) | > 100 µM (inactive) | > 100 µM (inactive)
CC1=C(C(=O)NCc2ccccc2)C(c2ccccc2[N+](=O)[O-])C(C(=O)NCc2ccccc2)=C(C)N1 |  | 7.8 | 3.31 µM (inactive) |  | 13.9 µM (inactive) | 10.9 µM (inactive) |  | 22.1 µM (inactive) | 18.2 µM (inactive) | 18.4 µM (inactive) | 8.09 µM (inactive) | 17.3 µM (inactive) | 14.5 µM (inactive) | 12.3 µM (inactive) | 20.6 µM (inactive) | 5.08 µM (inactive) | 16.2 µM (inactive)
Cc1ccc(S(=O)(=O)N/N=C(\c2nc3ccc(Cl)cc3[nH]c2=O)C(O)c2ccco2)cc1 (stereo not given) |  | > 100 | 44 µM (inactive) |  |  |  | > 100 µM (inactive) | > 100 µM (inactive) | > 100 µM (inactive) | > 100 µM (inactive) | > 100 µM (inactive) | > 100 µM (inactive) | > 100 µM (inactive) | > 100 µM (inactive) |  | 42.3 µM (inactive) | > 100 µM (inactive)
C#CCn1c(=O)[nH]c(=O)c2cccnc21 | > 100 µM (inactive) | > 100 | > 100 µM (inactive) | > 100 µM (inactive) |  | > 100 µM (inactive) | > 100 µM (inactive) | > 100 µM (inactive) |  |  |  | > 100 µM (inactive) | > 100 µM (inactive) | > 100 µM (inactive) | > 100 µM (inactive) |  | > 100 µM (inactive)
COc1ccc2c3ccc4c(c3n(C)c2c1)C(=O)C=CC4=O | 6.41 µM (inactive) | 42.6 | 3.84 µM (inactive) | > 100 µM (inactive) | 20.5 µM (inactive) | > 100 µM (inactive) |  |  | > 100 µM (inactive) | > 100 µM (inactive) | 20.8 µM (inactive) | 84.5 µM (inactive) | 16.4 µM (inactive) | 52.1 µM (inactive) | > 100 µM (inactive) | 5.92 µM (inactive) | > 100 µM (inactive)
CCOC(=O)C(C)(C)Oc1ccc(/C=C/C(=O)c2ccc(Cl)cc2)cc1 | 10.9 µM (inactive) | 17.2 | 24.5 µM (inactive) |  | 35.2 µM (inactive) | 17.7 µM (inactive) | 20.7 µM (inactive) |  | 20.2 µM (inactive) | 17.3 µM (inactive) | 19.5 µM (inactive) | > 10 µM (inactive) | 13.9 µM (inactive) | 18.6 µM (inactive) | 39.4 µM (inactive) | 14.3 µM (inactive) | 30 µM (inactive)
CS(=O)(=O)C1S(=O)(=O)OCCOS1(=O)=O | > 100 µM (inactive) |  | > 100 µM (inactive) | > 100 µM (inactive) | > 100 µM (inactive) | > 100 µM (inactive) |  | > 100 µM (inactive) | > 100 µM (inactive) | > 100 µM (inactive) | > 100 µM (inactive) | > 100 µM (inactive) | > 100 µM (inactive) | > 100 µM (inactive) | > 100 µM (inactive) | > 100 µM (inactive) | 7.93 µM (inactive)
O=C(O)C(CS)Nc1c2ccccc2nc2ccccc12 (stereo not given) | 48.2 µM (inactive) | 51.3 | 80.4 µM (inactive) | > 100 µM (inactive) | 26 µM (inactive) | > 100 µM (inactive) | 83.9 µM (inactive) | 53.5 µM (inactive) |  | > 100 µM (inactive) | 50 µM (inactive) | 82 µM (inactive) | 54.1 µM (inactive) | 91.8 µM (inactive) |  | 49.7 µM (inactive) | > 100 µM (inactive)
CC#CCC1CCC(OCC)=CC1=O (stereo not given) | > 100 µM (inactive) | > 100 | > 100 µM (inactive) | > 100 µM (inactive) | > 100 µM (inactive) | > 100 µM (inactive) | > 100 µM (inactive) | > 100 µM (inactive) |  | > 100 µM (inactive) | > 100 µM (inactive) |  | > 100 µM (inactive) | > 100 µM (inactive) | > 100 µM (inactive) | > 100 µM (inactive) | 92.7 µM (inactive)
COc1ccc(Br)c(C(=O)N2CCc3ccccc32)c1N | 40.6 µM (inactive) | 29.2 | 40.6 µM (inactive) | 30.5 µM (inactive) | 33.8 µM (inactive) | 33.9 µM (inactive) | 25.1 µM (inactive) | > 100 µM (inactive) |  | 70.5 µM (inactive) | 27.5 µM (inactive) | 30 µM (inactive) | 49.1 µM (inactive) | 44.9 µM (inactive) | 42.3 µM (inactive) | 30.2 µM (inactive) | 58.6 µM (inactive)
Cc1cn(C2CC(O)C(COC(=O)c3ccccc3)O2)c(=O)[nH]c1=O (stereo not given) | > 100 µM (inactive) | > 100 | > 100 µM (inactive) |  |  | > 100 µM (inactive) |  | > 100 µM (inactive) | > 100 µM (inactive) | > 100 µM (inactive) | > 100 µM (inactive) | > 100 µM (inactive) | > 100 µM (inactive) | > 100 µM (inactive) | > 100 µM (inactive) | > 100 µM (inactive) | 
CC(C)(C)C(=O)/C=C/c1ccc(Oc2ccccc2)cc1 | 8.95 µM (inactive) | > 10 |  | 37.9 µM (inactive) | 15.8 µM (inactive) | 14.8 µM (inactive) | 16.7 µM (inactive) | 19.3 µM (inactive) | 14.5 µM (inactive) | 30.8 µM (inactive) | > 10 µM (inactive) | 34.3 µM (inactive) | 17.3 µM (inactive) | > 10 µM (inactive) | 27.4 µM (inactive) | 7.03 µM (inactive) | 19.6 µM (inactive)
CC(C)=CCCC1(C)C=Cc2c(c(C)cc3c2[nH]c2cc(O)ccc23)O1 (stereo not given) | > 25 µM (inactive) | > 25 | 22.5 µM (inactive) | > 25 µM (inactive) | > 25 µM (inactive) | > 25 µM (inactive) | > 25 µM (inactive) | > 25 µM (inactive) |  | > 25 µM (inactive) | > 25 µM (inactive) | > 25 µM (inactive) | > 25 µM (inactive) |  | > 25 µM (inactive) | > 25 µM (inactive) | > 25 µM (inactive)
